Source: ChEMBL document CHEMBL4049384, “Synthesis and evaluation of an injectable everolimus prodrug” (Bioorg Med Chem Lett, 2017)

Tests used:
[1] = system: Mus musculus; assay: Toxicity in nude mouse xenografted with human OS-RC2 cells assessed as body weight loss at 24 mg/kg, iv administered once weekly measured on day 22 (reference value: 23.1 %); assay type: organism-based; settings: in vivo
[2] = system: Blood; assay: Prodrug conversion in Sprague-Dawley rat blood assessed as everolimus level at 2.724 mg/kg, iv at 6 hrs post dose by HPLC method; assay type: ADME, organism-based; settings: in vivo
[3] = system: Blood; assay: Prodrug conversion in Sprague-Dawley rat blood assessed as everolimus level at 2.724 mg/kg, iv at 2 hrs post dose by HPLC method; assay type: ADME, organism-based; settings: in vivo
[4] = system: OS-RC-2; assay: Antitumor activity against human OS-RC2 cells xenografted in nude mouse assessed as reduction in tumor volume at 1.5 mg/kg, iv administered three times a week measured on day 26 relative to control; assay type: functional
[5] = Prodrug conversion in phosphate buffered saline at pH 7.4 assessed as everolimus formation
[6] = system: OS-RC-2; assay: Antitumor activity against human OS-RC2 cells xenografted in nude mouse assessed as reduction in tumor volume at 1.5 mg/kg, iv administered three times a week measured on day 8 relative to control; assay type: functional
[7] = system: OS-RC-2; assay: Antitumor activity against human OS-RC2 cells xenografted in nude mouse assessed as tumor growth inhibition at 24 mg/kg, iv administered once weekly measured after 32 days relative to control; assay type: functional; settings: OS-RC-2, iv, 768 h, read-out: TGI
[8] = system: OS-RC-2; assay: Antitumor activity against human OS-RC2 cells xenografted in nude mouse assessed as tumor weight at 1.5 mg/kg, iv administered three times a week measured after 32 days (reference value: 0.68 +/- 0.06 g); assay type: functional
[9] = system: Mus musculus; assay: Toxicity in nude mouse xenografted with human OS-RC-2 cells assessed as body weight at 24 mg/kg, iv administered once weekly measured on day 1 (reference value: 20.4 +/- 0.33 g); assay type: organism-based; settings: in vivo
[10] = system: Mus musculus; assay: Toxicity in nude mouse xenografted with human OS-RC2 cells assessed as body weight loss at 24 mg/kg, iv administered once weekly measured on day 26 (reference value: 28.2 %); assay type: organism-based; settings: in vivo
[11] = system: Blood; assay: Prodrug conversion in Sprague-Dawley rat blood assessed as everolimus formation at 2 mg/kg, iv after 2 hrs by HPLC analysis; assay type: ADME, organism-based; settings: in vivo
[12] = Half life in Sprague-Dawley rat at 2.724 mg/kg, iv; assay type: ADME, organism-based; settings: in vivo
[13] = system: Mus musculus; assay: Toxicity in nude mouse xenografted with human OS-RC2 cells assessed as body weight loss at 1.5 mg/kg administered three times a week intravenously and measured on Day 5 (reference value: 1.9 %); assay type: organism-based; settings: in vivo, iv
[14] = system: Blood; assay: Prodrug conversion in Sprague-Dawley rat blood assessed as everolimus level at 2.724 mg/kg, iv at 24 hrs post dose by HPLC method; assay type: ADME, organism-based; settings: in vivo
[15] = system: Serum; assay: Prodrug conversion in rat serum assessed as everolimus formation after 4 hrs by HPLC analysis; assay type: ADME, cell-free
[16] = system: Mus musculus; assay: Toxicity in nude mouse xenografted with human OS-RC-2 cells assessed as body weight loss at 1.5 mg/kg, iv administered three times a week measured after 32 days (reference value: 33%); assay type: organism-based; settings: in vivo, 768 h
[17] = system: Blood; assay: Prodrug conversion in Sprague-Dawley rat blood assessed as everolimus level at 2.724 mg/kg, iv at 0.5 hrs post dose by HPLC method; assay type: ADME, organism-based; settings: in vivo
[18] = system: Blood; assay: Prodrug conversion in Sprague-Dawley rat blood assessed as everolimus level at 2.724 mg/kg, iv at 1.5 hrs post dose by HPLC method; assay type: ADME, organism-based; settings: in vivo
[19] = system: Mus musculus; assay: Toxicity in nude mouse xenografted with human OS-RC2 cells assessed as body weight loss at 1.5 mg/kg administered three times a week intravenously and measured on Day 8 (reference value: 8.5 %); assay type: organism-based; settings: in vivo, iv
[20] = system: Mus musculus; assay: Toxicity in nude mouse xenografted with human OS-RC-2 cells assessed as body weight loss at 24 mg/kg, iv administered once weekly measured after 32 days (reference value: 33%); assay type: organism-based; settings: in vivo, 768 h
[21] = system: Mus musculus; assay: Toxicity in nude mouse xenografted with human OS-RC-2 cells assessed as body weight at 1.5 mg/kg, iv administered three times a week measured on day 1 (reference value: 20.4 +/- 0.33 g); assay type: organism-based; settings: in vivo
[22] = system: Mus musculus; assay: Toxicity in nude mouse xenografted with human OS-RC2 cells assessed as body weight loss at 24 mg/kg, iv administered once weekly measured on day 19 (reference value: 23.1 %); assay type: organism-based; settings: in vivo
[23] = AUC (0 to infinity) in Sprague-Dawley rat at 2.724 mg/kg, iv; assay type: ADME, organism-based; set-up: dose 2.724 mg/kg, route intravenous, time infinity; settings: in vivo
[24] = system: OS-RC-2; assay: Antitumor activity against human OS-RC2 cells xenografted in nude mouse assessed as reduction in tumor volume at 1.5 mg/kg, iv administered three times a week measured on day 12 relative to control; assay type: functional
[25] = system: OS-RC-2; assay: Antitumor activity against human OS-RC2 cells xenografted in nude mouse assessed as reduction in tumor volume at 1.5 mg/kg, iv administered three times a week measured on day 29 relative to control; assay type: functional
[26] = system: OS-RC-2; assay: Antitumor activity against human OS-RC2 cells xenografted in nude mouse assessed as reduction in tumor volume at 24 mg/kg, iv administered once weekly measured on day 32 relative to control; assay type: functional
[27] = system: Mus musculus; assay: Toxicity in nude mouse xenografted with human OS-RC2 cells assessed as body weight loss at 1.5 mg/kg administered three times a week intravenously and measured on Day 22 (reference value: 23.1 %); assay type: organism-based; settings: in vivo, iv
[28] = system: OS-RC-2; assay: Antitumor activity against human OS-RC2 cells xenografted in nude mouse assessed as reduction in tumor volume at 1.5 mg/kg, iv administered three times a week measured on day 32 relative to control; assay type: functional
[29] = system: OS-RC-2; assay: Antitumor activity against human OS-RC2 cells xenografted in nude mouse assessed as reduction in tumor volume at 1.5 mg/kg, iv administered three times a week measured on day 15 relative to control; assay type: functional
[30] = system: Mus musculus; assay: Toxicity in nude mouse xenografted with human OS-RC2 cells assessed as body weight loss at 24 mg/kg, iv administered once weekly measured on day 8 (reference value: 8.5 %); assay type: organism-based; settings: in vivo
[31] = system: OS-RC-2; assay: Antitumor activity against human OS-RC2 cells xenografted in nude mouse assessed as reduction in tumor volume at 24 mg/kg, iv administered once weekly measured on day 15 relative to control; assay type: functional
[32] = system: OS-RC-2; assay: Antitumor activity against human OS-RC2 cells xenografted in nude mouse assessed as reduction in tumor volume at 24 mg/kg, iv administered once weekly measured on day 29 relative to control; assay type: functional
[33] = system: DU-145; assay: Antiproliferative activity against human DU145 cells after 48 hrs by MTT assay; assay type: functional, cell-based; settings: DU-145, 48 h

`CO[C@H]1C[C@@H]2CC[C@@H](C)[C@@](O)(O2)C(=O)C(=O)N2CCCC[C@H]2C(=O)O[C@H]([C@H](C)C[C@@H]2CC[C@@H](OCCOC(=O)CSC[C@H](NC(=O)CC[C@H](N)C(=O)O)C(=O)NCC(=O)O)[C@H](OC)C2)CC(=O)[C@H](C)/C=C(\C)[C@@H](O)[C@@H](OC)C(=O)[C@H](C)C[C@H](C)\C=C/C=C/C=C/1C` gave an Activity [1] of 10.2%, a Drug metabolism [2] of 8.113 ng/mL and a Drug metabolism [3] of 28.155 ng/mL. For the same molecule, the T/C [4] was 0.52%, the Drug metabolism [5] was “Metabolite not detected” and the T/C [6] was 0.57%. For the same molecule, the inhibition in vivo at 24 mg/kg [7] was 60.6%, the Activity [8] was 0.29 g and the Activity [9] was 21.28 g. For the same molecule, the Activity [10] was 10.2%, the Drug metabolism [11] was “Metabolite_Detected” and the half-life [12] was 2.3 h. The Activity [13] was 6.8%, the Drug metabolism [14] was 2.3295 ng/mL and the Drug metabolism [15] was “Metabolite_Detected”. It also gave an Activity [16] of 12.3%, a Drug metabolism [17] of 326.1655 ng/mL and a Drug metabolism [18] of 40.4142 ng/mL. For the same molecule, the Activity [19] was 9.2%, the Activity [20] was 10.7% and the Activity [21] was 20.67 g. It also gave an Activity [22] of 10.2%, an AUC(0-inf) [23] of 2510 ng·h/mL and a T/C [24] of 0.6%. The T/C [25] was 0.54%, the T/C [26] was 0.53% and the Activity [27] was 11.5%. The T/C [28] was 0.52%, the T/C [29] was 0.55% and the Activity [30] was 5.3%. It also gave a T/C [31] of 0.41%, a T/C [32] of 0.54% and an IC50 [33] of 56.2 µM.
